“Also recorded” adds a separate entry of the source. Square brackets hold non-standard residues; d marks the D form. Primed or numbered codes have the meaning given here. Ends that are not written are not given here. Cy5″ = Cy5 dye, coupled as maleimide to the C-terminal Cys; Abu = CC[C@H](N)C(=O)O
What was measured:
Type in all cases: cell-based, Chinese hamster
CHO cells [1] = experiment: Flow cytometry of cell penetration of Cy5-labeled peptides in CHO cells; details: for cell penetration (fluorescence accumulation within cells): 2 hrs incubation, 3 μM peptide, trypsin treatment; for dose-dependent cell penetration: concentrations up to 33 μM
Procedure: Each peptide was labeled with Cy5 according to the manufacturer's protocol (GE HEALTHCARE). Peptides were dissolved at 1 mg/ml in 0.1 M Na2CO3 buffer, pH 9.3. 300 μl of the solubilized peptides were added to Cy5-maleimide containing tubes. The mixtures were incubated during 2 hrs at room temperature and then purified by HPLC using an analytical Vydac C18 column. Elution of the Cy5-labeled peptides was performed with a 10-60% acetonitrile linear gradient containing 0.1% trifluoroacetic acid. The pure peak fractions were lyophilized and peptides quantified by UV spectrophotometer at 649 nm.
Chinese hamster ovary (CHO) and F98 rat glioma cell lines (from ATCC) were maintained at 37° C. in 5% CO2 in F-12K nutrient medium (INVITROGEN) supplemented with 10% (v/v) heat-inactivated fetal bovine serum (INVITROGEN) and 10,000 units/ml streptomycine and penicillin (INVITROGEN) for the CHO cells, and 2% heat-inactivated fetal bovine serum and 100 units/ml streptomycine and penicillin for the F98 cells
(§1) CHO and F98 cells were incubated with various concentrations of Cy5-labeled peptides in F-12K culture medium without serum at 37° C. for 2 hrs. The cells were then washed with PBS to remove excess extracellular peptide and treated with 1 mg/ml trypsin (INVITROGEN) for 5 min at 37° C. to detach cells from the surface, and centrifuged at 200 g before suspension in PBS. For experiments with the macropinocytosis inhibitor, amiloride, CHO cells were initially washed with F-12K and preincubated for 30 min at 37° C. with 1 mM amiloride (SIGMA). The cells were then incubated for 2 hrs at 37° C. with 1 μM of the Cy5-MCa analogues. For all these experimental conditions, flow cytometry analyses were performed with live cells using a Becton Dickinson flow cytometer LSR II or an Accuri® flow cytometer (BD BIOSCIENCES). Data were obtained and analyzed using FCS express software (DE NOVO) or Accuri® proprietary software CFlow sampler. Live cells were gated by forward/side scattering from a total of 10,000 events.

CHO cells [2] = experiment: Confocal microscopy of subcellular localization of Cy5-labeled peptides in living CHO cells (rhodamine-concanavalin A membrane stain); details: 2 hrs; for Cy5-positive pixels rhodamine-positive (colocalization with the plasma membrane indicator): FIG. 3; for intracellular / plasma membrane distribution: confocal microscopy; for Rhodamine-positive staining also Cy5-positive (pixels): Cy5/rhodamine colocalization
Procedure: For analysis of the subcellular localization of MCa-Cy5 analogues in living cells, cell cultures were incubated with the fluorescent peptides for 2 hrs, and then washed with phosphate-buffered saline (PBS) alone. The plasma membrane was stained with 5 μg/ml rhodamine-conjugated concanavalin A (MOLECULAR PROBES) for 5 min. Cells were washed once more. Live cells were then immediately analyzed by confocal laser scanning microscopy using a Leica TCS-SPE operating system. Rhodamine (580 nm) and Cy5 (670 nm) were sequentially excited and emission fluorescence were collected in z-confocal planes of […] steps.

CHO cells [3] = experiment: Amiloride sensitivity of peptide cell entry (macropinocytosis inhibition), flow cytometry; details: for amiloride-sensitivity of cell penetration: Cy5 as cargo, flow cytometry (FIG. 4)
Procedure: as §1, with “For experiments with the macropinocytosis inhibitor, amiloride, CHO cells were initially washed with F-12K and preincubated for 30 min at 37° C. with 1 mM amiloride (SIGMA). The cells were then incubated for 2 hrs at 37° C. with 1 μM of the Cy5-MCa analogues.” left out

In the case of “GDaLPHLKLC (GD[Abu]LPHLKLC) [MCaUF1-9-C]”, the “cell penetration (fluorescence accumulation within cells)” value (CHO cells [1]) is reported as “showed CPP properties; also recorded: better CPP than MCaUF1-15-C”.

With “GDaLPHLKLaKENKDC (GD[Abu]LPHLKL[Abu]KENKDC) [MCaUF1-15-C]” the “cell penetration (fluorescence accumulation within cells)” value (CHO cells [1]) was “showed CPP properties”.

“GTNIEKRaRC (GTNIEKR[Abu]RC) [MCaUF25-33-C]” was tested, and the “cell penetration (fluorescence accumulation within cells)” value (CHO cells [1]) was “have also CPP properties”.

For “KDaaSKKaKRRG (KD[Abu][Abu]SKK[Abu]KRRG) [MCaUF14-25]”, the dose-dependent cell penetration (CHO cells [1]; 2 hrs) was “yields the greatest cell entry of the dye”.

In the case of “MCaUF1-9-C-Cy5: MCaUF1-9-C (SEQ ID NO: 136, GDaLPHLKLC) labeled with Cy5 (GD[Abu]LPHLKLC(Cy5″))”, the “Cy5-positive pixels rhodamine-positive (colocalization with the plasma membrane indicator)” value (shortened to “Cy5-positive pixels rhodamine-positive”) (CHO cells [2]) is reported as “higher values of colocalization”, the “intracellular / plasma membrane distribution” value (CHO cells [2]) is reported as “dots appear at higher concentrations within one pole of the cell” and the “concentration with detectable cell penetration” value (CHO cells [1]; 2 hrs) is reported as 10 nM. For the same substance, the dose-dependent cell penetration (CHO cells [1]; 2 hrs) was “best performing peptide for cell penetration at low concentrations”.

For “MCaUF1-15-C-Cy5: MCaUF1-15-C (SEQ ID NO: 135) labeled with Cy5 (GD[Abu]LPHLKL[Abu]KENKDC(Cy5″))”, the “inhibition of cell penetration by amiloride” value (CHO cells [3]; 2 hrs, peptide with or without 5 mM amiloride (FIG. 4A)) was 39% and the “amiloride-sensitivity of cell penetration” value (shortened to “amiloride-sensitivity”) (CHO cells [3]) was “higher amiloride-sensitivity than MCaUF1-33-C-Cy5”.

With “MCaUF1-20-C-Cy5: MCaUF1-20-C (SEQ ID NO: 134) labeled with Cy5 (GD[Abu]LPHLKL[Abu]KENKD[Abu][Abu]SKKC(Cy5″))” the “Cy5-positive pixels rhodamine-positive” value (CHO cells [2]) was 30.4±1.4% and the dose-dependent cell penetration (CHO cells [1]; 2 hrs) was “performing as well as MCaUF8-33-C-Cy5”.

In the case of “MCaUF8-33-C-Cy5: MCaUF8-33-C (SEQ ID NO: 141) labeled with Cy5 (KL[Abu]KENKD[Abu][Abu]SKK[Abu]KRRGTNIEKR[Abu]RC(Cy5″))”, the “intracellular / plasma membrane distribution” value (CHO cells [2]) is reported as “dots appear at higher concentrations within one pole of the cell” and the dose-dependent cell penetration (CHO cells [1]; 2 hrs) is reported as “did not show any sign of saturation; also recorded: no saturation of cell entry”.

With “MCaUF11-33-C-Cy5: MCaUF11-33-C (SEQ ID NO: 142) labeled with Cy5 (KENKD[Abu][Abu]SKK[Abu]KRRGTNIEKR[Abu]RC(Cy5″))” the “Cy5-positive pixels rhodamine-positive” value (CHO cells [2]) was 21.3±2.6%, the “intracellular / plasma membrane distribution” value (CHO cells [2]) was “dots appear at higher concentrations within one pole of the cell” and the “amiloride-sensitivity” value (CHO cells [3]) was “higher amiloride-sensitivity than MCaUF1-33-C-Cy5”.

In the case of “MCaUF14-33-C-Cy5: MCaUF14-33-C (SEQ ID NO: 143) labeled with Cy5 (KD[Abu][Abu]SKK[Abu]KRRGTNIEKR[Abu]RC(Cy5″))”, the “Rhodamine-positive staining also Cy5-positive (pixels)” value (CHO cells [2]) is reported as “best performing” and the “Cy5-positive pixels rhodamine-positive” value (CHO cells [2]) is reported as “higher values of colocalization”.

In the case of “MCaUF20-33-C-Cy5: MCaUF20-33-C (SEQ ID NO: 144) labeled with Cy5 (K[Abu]KRRGTNIEKR[Abu]RC(Cy5″))”, the “Rhodamine-positive staining also Cy5-positive (pixels)” value (CHO cells [2]) is reported as “best performing”, the “intracellular / plasma membrane distribution” value (CHO cells [2]) is reported as “Diffuse membrane labeling” and the “amiloride-sensitivity” value (CHO cells [3]) is reported as “enhance rather than inhibit the cell penetration”.

For “MCaUF22-33-C-Cy5: MCaUF22-33-C (SEQ ID NO: 145) labeled with Cy5 (KRRGTNIEKR[Abu]RC(Cy5″))”, the “Rhodamine-positive staining also Cy5-positive (pixels)” value (CHO cells [2]) was “best performing” and the “intracellular / plasma membrane distribution” value (CHO cells [2]) was “direct plasma membrane labeling”.

With “MCaUF25-33-C-Cy5: MCaUF25-33-C (SEQ ID NO: 146) labeled with Cy5 (GTNIEKR[Abu]RC(Cy5″))” the “intracellular / plasma membrane distribution” value (CHO cells [2]) was “dots appear at higher concentrations within one pole of the cell; also recorded: Diffuse membrane labeling” and the “amiloride-sensitivity” value (CHO cells [3]) was “higher amiloride-sensitivity than MCaUF1-33-C-Cy5”.

For “SKKaKRRGTNIEKRaR (SKK[Abu]KRRGTNIEKR[Abu]R) [MCaUF18-33]”, the “amiloride-sensitivity” value (CHO cells [3]) was “macropinocytosis entry-independent”.
